{"source": "patent US8129037B2", "about": "“Phenanthrene derivative” (priority 2005, dated 2012)", "assay": "Solubility comparison in common organic solvents", "assay_type": "physicochemical", "conditions": "qualitative", "from_the_text": "In contrast, phenanthrenes which are structurally analogous but unsubstituted in the 9- and 10-position have distinctly poorer solubility in organic solvents. This leads to considerable problems in the purification, since substantially larger apparatus and distinctly larger amounts of solvent are required for this purpose.", "data": [{"smiles": "Cc1ccc(-c2ccc3c(c2)c(C)c(C)c2cc(-c4ccc(C)c5ccccc45)ccc23)c2ccccc12", "note": "[Example P1]", "values": [{"measurement": "Solubility in common organic solvents", "value": "moderate to good"}]}]}
